Results on seven compounds are retold here after PubChem BioAssay (NCI).

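Test compounds were applied to cells in 96-well plates for 48 hours at 5 doses. GI50: concentration for 50% inhibition of growth. TGI marks complete inhibition of growth.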

Among the test systems are PC-3 prostate; SK-MEL-5 melanoma; OVCAR-5 ovarian; M14 melanoma; BT-549 breast; SK-OV-3 ovarian; HL-60(TB) leukemia; CAKI-1 renal; NCI-H460 lung; SF-268 CNS.
What all share (test): NCI-60 cell line screen, 48 h

For `CCN(CC)CCCC(C)N=c1cc(Nc2cc(=NC(C)CCCN(CC)CC)c3cc(OC)ccc3o2)oc2ccc(OC)cc12` (stereo not given), the GI50 was 1.49 µM with PC-3 prostate; 0.731 µM in the assay with SK-MEL-5 melanoma; 0.89 µM in the assay on OVCAR-5 ovarian; 0.967 µM with M14 melanoma; 3.16 µM in the assay with BT-549 breast; 1.31 µM in the assay with SK-OV-3 ovarian. Also, the GI50 in the assay with HL-60(TB) leukemia was 2.66 µM; in the assay on CAKI-1 renal it was 1.34 µM; in the assay with NCI-H460 lung, 0.679 µM; in the assay with SF-268 CNS it was 2.15 µM. The TGI in the assay with PC-3 prostate was found to be 6.8 µM; in the assay with SK-MEL-5 melanoma it was 1.39 µM; in the assay on OVCAR-5 ovarian, 2.38 µM; in the assay with M14 melanoma, 1.79 µM; in the assay on BT-549 breast it was 9.49 µM; in the assay with SK-OV-3 ovarian it was 4.13 µM. For the same compound, the TGI was 13.2 µM in the assay with HL-60(TB) leukemia, 5.75 µM in the assay with CAKI-1 renal, 2.15 µM in the assay with NCI-H460 lung and 8.72 µM in the assay with SF-268 CNS.
`CC1=C([Te]c2ccc(O)cc2)C(=O)c2ccccc2C1=O`: the GI50 is 1.53 µM in the assay with PC-3 prostate; 1.53 µM in the assay with SK-MEL-5 melanoma; 2.44 µM in the assay with OVCAR-5 ovarian; 1.88 µM in the assay with M14 melanoma; 0.448 µM with BT-549 breast; 1.66 µM in the assay with SK-OV-3 ovarian. Besides, the GI50 was 1.83 µM in the assay with HL-60(TB) leukemia, 2.21 µM with CAKI-1 renal, 0.347 µM in the assay on NCI-H460 lung and 2.63 µM with SF-268 CNS. In addition, the TGI in the assay on PC-3 prostate was 5.11 µM; in the assay on SK-MEL-5 melanoma it was 2.92 µM; in the assay with OVCAR-5 ovarian, 7.75 µM; in the assay on M14 melanoma, 5.05 µM; in the assay on BT-549 breast, 4.22 µM; in the assay on SK-OV-3 ovarian, 4.52 µM. For the same compound, the TGI in the assay with HL-60(TB) leukemia is 5 µM; in the assay with CAKI-1 renal it was 7.41 µM; in the assay on NCI-H460 lung it was 1.62 µM; in the assay on SF-268 CNS, 9.03 µM.
For the compound `Nc1c(C(=O)c2ccc(CCCN3CCOCC3)cc2)cnn1-c1ccc(F)cc1`, the GI50 in the assay with PC-3 prostate is over 25 µM; with SK-MEL-5 melanoma, 8.01 µM; in the assay with OVCAR-5 ovarian, over 25 µM; with M14 melanoma, over 25 µM; in the assay on BT-549 breast, over 25 µM; in the assay with SK-OV-3 ovarian, over 25 µM. Also, the GI50 in the assay on HL-60(TB) leukemia, in the assay on CAKI-1 renal, in the assay with NCI-H460 lung and in the assay with SF-268 CNS was over 25 µM throughout. For the same compound, the TGI in the assay with PC-3 prostate was over 25 µM; in the assay with SK-MEL-5 melanoma, 24.3 µM; in the assay on OVCAR-5 ovarian, over 25 µM; in the assay with M14 melanoma, over 25 µM; with BT-549 breast, over 25 µM; with SK-OV-3 ovarian, over 25 µM. The TGI in the assay on HL-60(TB) leukemia, in the assay on CAKI-1 renal, in the assay on NCI-H460 lung and with SF-268 CNS was over 25 µM in each case.
With `O=c1oc2ccc(-n3c(=O)c4ccccc4c4ccccc4c3=O)cc2c2ccccc12`, the TGI with PC-3 prostate, in the assay with SK-MEL-5 melanoma, in the assay with OVCAR-5 ovarian, in the assay with M14 melanoma, in the assay with BT-549 breast and in the assay on SK-OV-3 ovarian was over 100 µM each time. Moreover, the TGI with HL-60(TB) leukemia, in the assay with CAKI-1 renal, in the assay on NCI-H460 lung and in the assay on SF-268 CNS was over 100 µM in each case.
On to `COc1ccc(-c2nc(N3CCN(C(=O)C4CCCCC4)CC3)c3c4c(sc3n2)CCCC4)cc1`, for which the GI50 in the assay on PC-3 prostate was 26.1 µM; in the assay on SK-MEL-5 melanoma, 68.9 µM; with OVCAR-5 ovarian, over 100 µM; in the assay on M14 melanoma it was over 100 µM; with BT-549 breast, 57.5 µM; in the assay with SK-OV-3 ovarian, 25.2 µM. Further, the GI50 with HL-60(TB) leukemia is 70.5 µM; in the assay on CAKI-1 renal, 60.6 µM; in the assay on NCI-H460 lung, over 100 µM; with SF-268 CNS, 89 µM. For the same compound, the TGI was over 100 µM in the assay on PC-3 prostate; over 100 µM in the assay on SK-MEL-5 melanoma; over 100 µM in the assay on OVCAR-5 ovarian; over 100 µM in the assay on M14 melanoma; over 100 µM in the assay with BT-549 breast; 71.7 µM with SK-OV-3 ovarian. The TGI in the assay on HL-60(TB) leukemia, in the assay on CAKI-1 renal, in the assay on NCI-H460 lung and with SF-268 CNS was over 100 µM each time.
On to `C=C(C)[C@@H]1CC[C@]2(CO)CC[C@]3(C)[C@H](CC[C@@H]4[C@@]5(C)CCC(NCCc6ccc(O)cc6)C(C)(C)[C@@H]5CC[C@]43C)[C@@H]12` (stereo not given in full), for which the GI50 in the assay with PC-3 prostate is 1.3 µM; with SK-MEL-5 melanoma it was 1.47 µM; with OVCAR-5 ovarian, 1.59 µM; in the assay on M14 melanoma, 1.6 µM; in the assay on BT-549 breast it was 1.75 µM; with SK-OV-3 ovarian, 1.77 µM. Moreover, the GI50 is 1.49 µM in the assay with HL-60(TB) leukemia, 1.54 µM with CAKI-1 renal, 1.53 µM in the assay on NCI-H460 lung and 1.86 µM with SF-268 CNS. Further, the TGI in the assay with PC-3 prostate is 2.64 µM; with SK-MEL-5 melanoma it was 2.8 µM; in the assay on OVCAR-5 ovarian, 2.96 µM; in the assay with M14 melanoma, 3.05 µM; with BT-549 breast it was 3.27 µM; with SK-OV-3 ovarian it was 3.21 µM. Moreover, the TGI with HL-60(TB) leukemia is 3.67 µM; in the assay on CAKI-1 renal, 2.88 µM; in the assay with NCI-H460 lung, 3 µM; in the assay on SF-268 CNS it was 3.67 µM.
As to `Cc1cc(Oc2ccc3nc(COc4ccc(CC5SC(=O)NC5=O)cc4)n(C)c3c2)cc(C)c1N` (stereo not given), the GI50 with PC-3 prostate is 31.8 µM; in the assay on SK-MEL-5 melanoma, 15.6 µM; in the assay with OVCAR-5 ovarian, over 63.7 µM; in the assay on M14 melanoma it was 29.6 µM; in the assay with BT-549 breast, 24.2 µM; in the assay with SK-OV-3 ovarian, over 66.1 µM. Besides, the GI50 in the assay on HL-60(TB) leukemia is 26.8 µM; with CAKI-1 renal, 30.9 µM; in the assay on NCI-H460 lung, 26.6 µM; in the assay on SF-268 CNS, 46.7 µM. Moreover, the TGI in the assay on PC-3 prostate was over 90.1 µM; in the assay on SK-MEL-5 melanoma, 32.5 µM; with OVCAR-5 ovarian it was over 100 µM; in the assay on M14 melanoma, over 78.3 µM; in the assay on BT-549 breast, over 79.2 µM; in the assay with SK-OV-3 ovarian, over 100 µM. Also, the TGI in the assay with HL-60(TB) leukemia is 88 µM; with CAKI-1 renal it was over 100 µM; with NCI-H460 lung, over 90.7 µM; with SF-268 CNS it was over 100 µM.
